Data: patent US7858653B2, “2-imidazoles” (Hoffman-La Roche Inc., priority 2006, dated 2010)

target: T1, mouse TAAR1 (Mus musculus, UniProt Q923Y8); experiment: Radioligand binding assay on membranes of HEK293 cells stably expressing TAAR1; conditions: TAAR1 membrane binding; species not given; read-out: calculated Kd value of the radioligand
T1 construct: expressed in transfected cells; host or cells: HEK293 cells (ATCC # CRL-1573), stably transfected with pIRESneo2 expression plasmid; membranes prepared
T1 sequence (Q923Y8 whole entry): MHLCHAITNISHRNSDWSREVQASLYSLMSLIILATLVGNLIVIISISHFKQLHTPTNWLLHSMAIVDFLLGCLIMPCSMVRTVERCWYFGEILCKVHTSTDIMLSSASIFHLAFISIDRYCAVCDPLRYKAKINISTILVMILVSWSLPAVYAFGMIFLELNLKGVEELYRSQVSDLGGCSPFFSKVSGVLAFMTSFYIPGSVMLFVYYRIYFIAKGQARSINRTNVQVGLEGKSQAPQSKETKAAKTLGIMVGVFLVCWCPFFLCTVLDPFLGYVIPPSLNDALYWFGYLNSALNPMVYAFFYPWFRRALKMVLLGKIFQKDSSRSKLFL
Protocol: Construction of TAAR Expression Plasmids and Stably Transfected Cell Lines
For the construction of expression plasmids the coding sequences of human, rat and mouse TAAR1 were amplified from genomic DNA essentially as described by Lindemann et al. (2005) genomics 85, 372-385. The Expand High Fidelity PCR System (Roche Diagnostics) was used with 1.5 mM Mg^2+ and purified PCR products were cloned into pCR2.1-TOPO cloning vector (Invitrogen) following the instructions of the manufacturer. PCR products were subcloned into the pIRESneo2 vector (BD Clontech, Palo Alto, Calif.), and expression vectors were sequence verified before introduction in cell lines.
HEK293 cells (ATCC # CRL-1573) were cultured essentially as described Lindemann et al. (2005) genomics 85, 372-385. For the generation of stably transfected cell lines HEK293 cells were transfected with the pIRESneo2 expression plasmids containing the TAAR coding sequences (described above) with Lipofectamine 2000 (Invitrogen) according to the instructions of the manufacturer, and 24 hours post transfection the culture medium was supplemented with 1 mg/ml G418 (Sigma, Buchs, Switzerland). After a culture period of about 10 d clones were isolated, expanded and tested for responsiveness to trace amines (all compounds purchased from Sigma) with the cAMP Biotrak Enzyme immunoassay (EIA) System (Amersham) following the non-acetylation EIA procedure provided by the manufacturer.
Membrane Preparation and Radioligand Binding
Cells at confluence were rinsed with ice-cold phosphate buffered saline without Ca^2+ and Mg^2+ containing 10 mM EDTA and pelleted by centrifugation at 1000 rpm for 5 minutes at 4° C. The pellet was then washed twice with ice-cold phosphate buffered saline and the cell pellet was frozen immediately by immersion in liquid nitrogen and stored until use at −80° C. The cell pellet was then suspended in 20 ml HEPES-NaOH (20 mM), pH 7.4 containing 10 mM EDTA, and homogenized with a Polytron (PT 3000, Kinematica) at 10,000 rpm for 10 seconds. The homogenate was centrifuged at 48,000×g for 30 minutes at 4° C. and the pellet resuspended in 20 ml HEPES-NaOH (20 mM), pH 7.4 containing 0.1 mM EDTA (buffer A), and homogenized with a Polytron at 10,000 rpm for 10 seconds. The homogenate was then centrifuged at 48,000×g for 30 minutes at 4° C. and the pellet resuspended in 20 ml buffer A, and homogenized with a Polytron at 10,000 rpm for 10 seconds. Protein concentration was determined by the method of Pierce (Rockford, Ill.). The homogenate was then centrifuged at 48,000×g for 10 minutes at 4° C., resuspended in HEPES-NaOH (20 mM), pH 7.0 including MgCl2 (10 mM) and CaCl2 ([…]) (buffer B) at 200 μg protein per ml and homogenized with a Polytron at 10,000 rpm for 10 seconds.
Binding assay was performed at 4° C. in a final volume of 1 ml, and with an incubation time of 30 minutes. The radioligand [^3H]-rac-2-(1,2,3,4-tetrahydro-1-naphthyl)-2-imidazoline was used at a concentration equal to the calculated Kd value of 60 nM to give a total binding at around 0.1% of the total added radioligand concentration, and a specific binding which represented approximately 70-80% of the total binding. Non-specific binding was defined as the amount of [^3H]-rac-2-(1,2,3,4-tetrahydro-1-naphthyl)-2-imidazoline bound in the presence of the appropriate unlabelled ligand (10 μM). Competing ligands were tested in a wide range of concentrations (10 pM-30 μM). […] Each experiment was performed in duplicate. All incubations were terminated by rapid filtration through UniFilter-96 plates (Packard Instrument Company) and glass filter GF/C, pre-soaked for at least 2 hours in polyethylenimine 0.3%, and using a Filtermate 96 Cell Harvester (Packard Instrument Company). […]

**Q.** With `c1ccc2c(c1)CCCC2C1=NCCN1` (racemic) [[^3H]-rac-2-(1,2,3,4-tetrahydro-1-naphthyl)-2-imidazoline, reference compound] as the compound, how does the Kd read?
**A.** The Kd was 60 nM.

same assay, conditions: mouse TAAR1; radioligand [3H]-rac-2-(1,2,3,4-tetrahydro-1-naphthyl)-2-imidazoline at 60 nM; 4° C., 30 minutes

**Q.** With `CC(Nc1ncc[nH]1)c1ccccc1` (racemic) [Example 9, (R,S)-(1H-Imidazol-2-yl)-(1-phenyl-ethyl)-amine] as the compound, how does the Ki read?
**A.** Its Ki is 0.46 µM.

**Q.** With `Cc1ccccc1C(C)Nc1ncc[nH]1` (racemic) [Example 21, (R,S)-(1H-Imidazol-2-yl)-(1-o-tolyl-ethyl)-amine] as the compound, how does the Ki read?
**A.** The Ki was 0.81 µM.

**Q.** `CC(Nc1ncc[nH]1)c1cccc(Cl)c1Cl` (racemic) [Example 22, (R,S)-[1-(2,3-Dichloro-phenyl)-ethyl]-(1H-imidazol-2-yl)-amine] was tested. Which Ki did it give?
**A.** The Ki was 0.076 µM.

**Q.** `CC(Nc1ncc[nH]1)c1ccccc1Cl` (racemic) [Example 29, (RS)-[1-(2-Chloro-phenyl)-ethyl]-(1H-imidazol-2-yl)-amine] was tested. Which Ki did it give?
**A.** Its Ki is 0.24 µM.

**Q.** Which Ki does the source give for `COC(Cc1ncc[nH]1)c1cccc(Cl)c1` (stereo not shown) [Example 1, 2-[2-(3-Chloro-phenyl)-2-methoxy-ethyl]-1H-imidazole] here?
**A.** Its Ki is 0.78 µM.

**Q.** How did the Ki turn out when `Clc1cccc(SCc2ncc[nH]2)c1Cl` [Example 3, 2-(2,3-Dichloro-phenylsulfanylmethyl)-1H-imidazole] was run?
**A.** Its Ki is 0.14 µM.

**Q.** `Clc1cccc(CNc2ncc[nH]2)c1` [Example 6, (3-Chloro-benzyl)-(1H-imidazol-2-yl)-amine] was tested. Which Ki did it give?
**A.** Its Ki is 0.86 µM.

**Q.** With `Clc1ccc(CNc2ncc[nH]2)cc1Cl` [Example 7, (3,4-Dichloro-benzyl)-(1H-imidazol-2-yl)-amine] as the compound, how does the Ki read?
**A.** Its Ki is 0.47 µM.

**Q.** How did the Ki turn out when `Clc1cccc(CNc2ncc[nH]2)c1Cl` [Example 8, (2,3-Dichloro-benzyl)-(1H-imidazol-2-yl)-amine] was run?
**A.** Its Ki is 0.18 µM.

**Q.** For `Cc1cccc(CNc2ncc[nH]2)c1` [Example 11, (1H-Imidazol-2-yl)-(3-methyl-benzyl)-amine], which Ki is on record?
**A.** Its Ki is 0.94 µM.

**Q.** `Fc1cccc(CNc2ncc[nH]2)c1` [Example 16, (3-Fluoro-benzyl)-(1H-imidazol-2-yl)-amine] was tested. Which Ki did it give?
**A.** Its Ki is 0.98 µM.

**Q.** `c1ccc2cc(CNc3ncc[nH]3)ccc2c1` [Example 24, (1H-Imidazol-2-yl)-naphthalen-2-ylmethyl-amine] was tested. Which Ki did it give?
**A.** Its Ki is 0.67 µM.
